These compounds were tested against PIK3CD (Human) (UniProt O00329) (assay: Assessment of PIK3CD Kinase Activity).
Sequence of PIK3CD (Human) (O00329 whole entry, looked up): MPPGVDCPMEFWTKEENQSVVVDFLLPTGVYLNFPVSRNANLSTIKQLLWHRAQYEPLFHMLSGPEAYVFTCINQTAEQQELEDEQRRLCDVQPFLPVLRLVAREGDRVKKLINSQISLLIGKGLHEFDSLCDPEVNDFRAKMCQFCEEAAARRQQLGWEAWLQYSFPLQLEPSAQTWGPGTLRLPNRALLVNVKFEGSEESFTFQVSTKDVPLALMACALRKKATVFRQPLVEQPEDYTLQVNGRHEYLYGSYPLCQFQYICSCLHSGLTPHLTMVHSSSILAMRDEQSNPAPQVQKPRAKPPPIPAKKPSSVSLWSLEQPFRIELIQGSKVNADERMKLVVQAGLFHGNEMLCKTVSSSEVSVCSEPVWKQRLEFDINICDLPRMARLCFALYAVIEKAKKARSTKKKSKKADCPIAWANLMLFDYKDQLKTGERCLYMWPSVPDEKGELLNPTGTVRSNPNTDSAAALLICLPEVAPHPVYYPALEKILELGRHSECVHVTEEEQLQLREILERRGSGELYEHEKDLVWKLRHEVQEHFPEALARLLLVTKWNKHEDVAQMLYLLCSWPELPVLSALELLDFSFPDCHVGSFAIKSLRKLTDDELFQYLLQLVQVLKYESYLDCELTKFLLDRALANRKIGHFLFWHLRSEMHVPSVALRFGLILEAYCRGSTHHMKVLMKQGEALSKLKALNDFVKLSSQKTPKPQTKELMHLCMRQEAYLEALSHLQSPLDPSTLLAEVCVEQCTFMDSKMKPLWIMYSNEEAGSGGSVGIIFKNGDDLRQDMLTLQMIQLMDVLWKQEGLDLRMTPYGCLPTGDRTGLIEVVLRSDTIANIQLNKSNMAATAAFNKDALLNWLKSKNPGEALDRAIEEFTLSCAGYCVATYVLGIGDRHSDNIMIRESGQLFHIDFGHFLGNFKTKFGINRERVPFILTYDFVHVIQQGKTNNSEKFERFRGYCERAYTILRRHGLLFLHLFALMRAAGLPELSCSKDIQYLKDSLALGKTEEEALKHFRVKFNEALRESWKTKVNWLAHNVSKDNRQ

SMILES	IC50
c1cc(-c2nc(N3CCOCC3)c3sc(CN4CCC(N5CCCCC5)CC4)cc3n2)c2cn[nH]c2c1	≤ 100 nM
OCC1CCN(Cc2cc3nc(-c4cccc5[nH]ncc45)nc(N4CCOCC4)c3s2)CC1	≤ 100 nM
CS(=O)(=O)N1CCN(Cc2cc3nc(-c4cccc5[nH]ncc45)nc(N4CCOCC4)c3s2)CC1CO (stereo not given)	≤ 100 nM
CN(CCCS(C)(=O)=O)C1CCN(Cc2cc3nc(-c4cccc5[nH]ncc45)nc(N4CCOCC4)c3s2)CC1	≤ 100 nM
c1ccc(N2CCN(Cc3cc4nc(-c5cccc6[nH]ncc56)nc(N5CCOCC5)c4s3)CC2)nc1	≤ 100 nM
OCCN1CCN(Cc2cc3nc(-c4cccc5[nH]ncc45)nc(N4CCOCC4)c3s2)CC1	≤ 100 nM
OCC1CCCN(Cc2cc3nc(-c4cccc5[nH]ncc45)nc(N4CCOCC4)c3s2)C1 (stereo not given)	≤ 100 nM
CN(C)CC1CCN(Cc2cc3nc(-c4cccc5[nH]ncc45)nc(N4CCOCC4)c3s2)CC1	≤ 100 nM
Cc1cccc(CN2CCN(Cc3cc4nc(-c5cccc6[nH]ncc56)nc(N5CCOCC5)c4s3)CC2)n1	≤ 100 nM
COCCOC1CCN(Cc2cc3nc(-c4cccc5[nH]ncc45)nc(N4CCOCC4)c3s2)CC1	≤ 100 nM
c1cc(-c2nc(N3CCOCC3)c3sc(CN4CCNCC4)cc3n2)c2cc[nH]c2c1	≤ 100 nM
CS(=O)(=O)N1CCN(Cc2cc3nc(-c4cccc5[nH]ccc45)nc(N4CCOCC4)c3s2)CC1	≤ 100 nM
CNC(=O)C1CCCN(Cc2cc3nc(-c4cccc5[nH]ncc45)nc(N4CCOCC4)c3s2)C1 (stereo not given)	≤ 100 nM
COCCN(C)C1CCN(Cc2cc3nc(-c4cccc5[nH]ncc45)nc(N4CCOCC4)c3s2)CC1	≤ 100 nM
C[C@@H]1CN(Cc2cc3nc(-c4cccc5[nH]ncc45)nc(N4CCOCC4)c3s2)C[C@H](C)N1Cc1nccs1	≤ 100 nM
CNC(=O)[C@@H]1CCCN(Cc2cc3nc(-c4cccc5[nH]ncc45)nc(N4CCOCC4)c3s2)C1	≤ 100 nM
CC(C)(C(=O)N1CCCC1)N1CCN(Cc2cc3nc(-c4cccc5[nH]ncc45)nc(N4CCOCC4)c3s2)CC1	≤ 100 nM
COCCCS(=O)(=O)C1CCN(Cc2cc3nc(-c4cccc5[nH]ncc45)nc(N4CCOCC4)c3s2)CC1	≤ 100 nM

SMILES	IC50
CN1CCN(Cc2cc3nc(-c4cccc5c4cnn5C)nc(N4CCOCC4)c3s2)CC1	≤ 100 nM
COCC1(N2CCN(Cc3cc4nc(-c5cccc6[nH]ncc56)nc(N5CCOCC5)c4s3)CC2)CC1	≤ 100 nM
c1cc(-c2nc(N3CCOCC3)c3sc(CN4CCN(Cc5ccncc5)CC4)cc3n2)c2cn[nH]c2c1	≤ 100 nM
c1cc(-c2nc(N3CCOCC3)c3sc(CN4CCN(Cc5ncc[nH]5)CC4)cc3n2)c2cn[nH]c2c1	≤ 100 nM
OC1(c2nccs2)CCN(Cc2cc3nc(-c4cccc5[nH]ncc45)nc(N4CCOCC4)c3s2)CC1	≤ 100 nM
c1ccc(OC2CCN(Cc3cc4nc(-c5cccc6[nH]ncc56)nc(N5CCOCC5)c4s3)CC2)nc1	≤ 100 nM
OCCN1CCN(Cc2cc3nc(-c4cccc5[nH]ccc45)nc(N4CCOCC4)c3s2)CC1	≤ 100 nM
c1cc(-c2nc(N3CCOCC3)c3sc(CN4CCC(CN5CCOCC5)CC4)cc3n2)c2cn[nH]c2c1	≤ 100 nM
c1cc(-c2nc(N3CCOCC3)c3sc(CN4CCC(N5CCOCC5)CC4)cc3n2)c2cc[nH]c2c1	≤ 100 nM
CC1CCCN(Cc2cc3nc(-c4cccc5[nH]ncc45)nc(N4CCOCC4)c3s2)C1 (stereo not given)	≤ 100 nM
CN(C)C(=O)N1CCN(Cc2cc3nc(-c4cccc5[nH]ccc45)nc(N4CCOCC4)c3s2)CC1	≤ 100 nM
COCCN(CC(F)(F)F)C1CCN(Cc2cc3nc(-c4cccc5[nH]ncc45)nc(N4CCOCC4)c3s2)CC1	≤ 100 nM
CN(C)C(=O)CN1CCN(Cc2cc3nc(-c4cccc5[nH]ncc45)nc(N4CCOCC4)c3s2)CC1	≤ 100 nM
COCCN(C)C1CCCN(Cc2cc3nc(-c4cccc5[nH]ncc45)nc(N4CCOCC4)c3s2)C1 (stereo not given)	≤ 100 nM
NC(=O)C1CCN(Cc2cc3nc(-c4cccc5[nH]ncc45)nc(N4CCOCC4)c3s2)CC1	≤ 100 nM
C[C@@H]1CN(C)C[C@H](C)N1Cc1cc2nc(-c3cccc4[nH]ncc34)nc(N3CCOCC3)c2s1	≤ 100 nM
COCC1CCN(Cc2cc3nc(-c4cccc5[nH]ncc45)nc(N4CCOCC4)c3s2)CC1	≤ 100 nM
